Laboratory results: patent US9358290B2, “Pharmaceutical formulations” (MOREX DEVELOPMENT PARTNERS LLP, priority 2012, dated 2016)
“And” between values parts separate entries of the source, which are not always exact repeats. Equal entries are not always repeated. Marks after values point to notes of the source that are not given here.

Tests used:
Type in all cases: physicochemical
[1] = Stability studies
[2] = Solubility in mixtures of DMA and water
Procedure: (§1) Initial solubility screening tests were therefore carried out to determine the solubility of MTL-005 in various water-miscible solvents. The screening tests were carried out by dissolving the MTL-005 in the test solvent, filtering the resulting solution to remove any undissolved materials and assaying the filtrate by measuring the UV absorbance at 420.6 nm.
In order to assess the suitability of DMA solutions of MTL-005 for administration by aqueous infusion, the solubility of MTL-005 in mixtures of DMA and water was assessed using the assay method described above.

[3] = Solubility in DMA/co-solvent mixtures
Procedure: as §1
According to the invention, water-miscible co-solvents are added to the DMA in order to improve the solubility of the MTL-005 when the formulation is diluted with water. Tests were therefore carried out to determine the solubility of MTL-005 in various DMA/co-solvent mixtures using the methods described above.
In the first series of tests, approximately 50 mg/ml MTL-005 was added to a range of cosolvent vehicles. A solubility in the region of 50 mg/ml was obtained for a range of vehicles (see results in column 1 in Table 3 below), therefore it could not be confirmed that saturated solutions were obtained. The work was therefore repeated at a higher MTL-005 loading of 150 mg/ml (see results in column 2 of Table 3).

[4] = Initial solubility screening in water-miscible solvents (filtrate assayed by UV absorbance at 420.6 nm)
Procedure: as §1

Copper meso-5,15-bis[3-[(1,2-dicarba-closo-dodecaboranyl)-methoxy]-phenyl]-meso-10,20-dinitroporphyrin [MTL-005]
Stability as a dry powder ([1]; dry powder): relatively stable as a dry powder | Stability in solution ([1]; in solution): not stable for extended periods in solution | Solubility ([2]; vehicle: 20% DMA/80% Water, 5 mg/ml added): <0.05 mg/mL | Solubility ([2]; vehicle: 40% DMA/60% Water, 5 mg/ml added): <0.05 mg/mL | Solubility ([2]; vehicle: 60% DMA/40% Water, 20 mg/ml added): <0.05 mg/mL | Solubility ([2]; vehicle: 80% DMA/20% Water, 18 mg/ml added): <0.05 mg/mL | Solubility ([2]; vehicle: 100% DMA, 92.5 mg/ml added): >90 mg/mL | Total MTL-005 dissolved (50 mg/ml added) ([3]; DMA 60%, Macrogol 300 40%): 34 mg/mL | Total MTL-005 dissolved (50 mg/ml added) ([3]; DMA 60%, Propylene Glycol 40%): 4 mg/mL | Total MTL-005 dissolved (50 mg/ml added) ([3]; DMA 60%, Solutol HS 40%, may not be saturated): 51 mg/mL | Total MTL-005 dissolved (150 mg/ml added) ([3]; DMA 60%, Solutol HS 40%): 58 mg/mL | Total MTL-005 dissolved (50 mg/ml added) ([3]; DMA 60%, Tetraglycol 40%, may not be saturated): 53 mg/mL | Total MTL-005 dissolved (150 mg/ml added) ([3]; DMA 60%, Tetraglycol 40%): 94 mg/mL | Total MTL-005 dissolved (50 mg/ml added) ([3]; DMA 60%, Tween 20 40%, may not be saturated): 47 mg/mL | Total MTL-005 dissolved (150 mg/ml added) ([3]; DMA 60%, Tween 20 40%): 37 mg/mL | Total MTL-005 dissolved (150 mg/ml added) ([3]; DMA 70%, Solutol HS 20%, Macrogol 300 10%): 74 mg/mL | Total MTL-005 dissolved (150 mg/ml added) ([3]; DMA 70%, Solutol HS 30%): 70 mg/mL | Total MTL-005 dissolved (50 mg/ml added) ([3]; DMA 80%, Macrogol 300 10%, Propylene Glycol 10%, may not be saturated): 48 mg/mL | Total MTL-005 dissolved (50 mg/ml added) ([3]; DMA 80%, Macrogol 300 10%, Tetraglycol 10%, may not be saturated): 49 mg/mL | Total MTL-005 dissolved (50 mg/ml added) ([3]; DMA 80%, Macrogol 300 20%, may not be saturated): 50 mg/mL | Total MTL-005 dissolved (150 mg/ml added) ([3]; DMA 80%, Macrogol 300 20%): 76 mg/mL | Total MTL-005 dissolved (50 mg/ml added) ([3]; DMA 80%, Propylene Glycol 20%): 27 mg/mL | Total MTL-005 dissolved (50 mg/ml added) ([3]; DMA 80%, Solutol HS 10%, Macrogol 300 10%, may not be saturated): 49 mg/mL | Total MTL-005 dissolved (150 mg/ml added) ([3]; DMA 80%, Solutol HS 10%, Macrogol 300 10%): 95 mg/mL | Total MTL-005 dissolved (50 mg/ml added) ([3]; DMA 80%, Solutol HS 10%, Propylene Glycol 10%, may not be saturated): 50 mg/mL | Total MTL-005 dissolved (150 mg/ml added) ([3]; DMA 80%, Solutol HS 10%, Propylene Glycol 10%): 58 mg/mL | Total MTL-005 dissolved (50 mg/ml added) ([3]; DMA 80%, Solutol HS 10%, Tetraglycol 10%, may not be saturated): 49 mg/mL | Total MTL-005 dissolved (150 mg/ml added) ([3]; DMA 80%, Solutol HS 10%, Tetraglycol 10%): 113 mg/mL | Total MTL-005 dissolved (50 mg/ml added) ([3]; DMA 80%, Solutol HS 20%, may not be saturated): 49 mg/mL | Total MTL-005 dissolved (150 mg/ml added) ([3]; DMA 80%, Solutol HS 20%): 115 mg/mL | Total MTL-005 dissolved (50 mg/ml added) ([3]; DMA 80%, Tetraglycol 10%, Propylene Glycol 10%, may not be saturated): 50 mg/mL | Total MTL-005 dissolved (50 mg/ml added) ([3]; DMA 80%, Tetraglycol 20%, may not be saturated): 52 mg/mL | Total MTL-005 dissolved (150 mg/ml added) ([3]; DMA 80%, Tetraglycol 20%): 131 mg/mL | Total MTL-005 dissolved (50 mg/ml added) ([3]; DMA 80%, Tween 20 10%, Macrogol 300 10%, may not be saturated): 50 mg/mL | Total MTL-005 dissolved (150 mg/ml added) ([3]; DMA 80%, Tween 20 10%, Macrogol 300 10%): 83 mg/mL | Total MTL-005 dissolved (50 mg/ml added) ([3]; DMA 80%, Tween 20 10%, Propylene Glycol 10%, may not be saturated): 49 mg/mL | Total MTL-005 dissolved (150 mg/ml added) ([3]; DMA 80%, Tween 20 10%, Propylene Glycol 10%): 79 mg/mL | Total MTL-005 dissolved (50 mg/ml added) ([3]; DMA 80%, Tween 20 10%, Solutol HS 10%, may not be saturated): 52 mg/mL | Total MTL-005 dissolved (50 mg/ml added) ([3]; DMA 80%, Tween 20 10%, Tetraglycol 10%, may not be saturated): 48 mg/mL | Total MTL-005 dissolved (150 mg/ml added) ([3]; DMA 80%, Tween 20 10%, Tetraglycol 10%): 101 mg/mL | Total MTL-005 dissolved (50 mg/ml added) ([3]; DMA 80%, Tween 20 20%, may not be saturated): 51 mg/mL | Total MTL-005 dissolved (150 mg/ml added) ([3]; DMA 80%, Tween 20 20%): 91 mg/mL | Total MTL-005 dissolved ([4]; solvent: Absolute ethanol): 0.089 mg/mL | Total MTL-005 dissolved ([4]; solvent: Benzyl alcohol): 0.91 mg/mL | Total MTL-005 dissolved ([4]; solvent: Cremophor EL 5% aq): 0.24 mg/mL | Total MTL-005 dissolved ([4]; solvent: Cremophor EL 10% aq): 0.27 mg/mL | Total MTL-005 dissolved ([4]; solvent: Cremophor EL 10% aq(heated)): 1.65 mg/mL | Total MTL-005 dissolved ([4]; solvent: DMA 10% w/v aq): 0.13 mg/mL | Total MTL-005 dissolved ([4]; solvent: DMA 10%, Cremophor EL 5% aq): 0.30 mg/mL | Total MTL-005 dissolved ([4]; solvent: DMA diluted 1 in 10 with Solutol HS15 20% w/v aq): 1.44 mg/mL | Total MTL-005 dissolved ([4]; solvent: Deionised water): 0.001 mg/mL | Total MTL-005 dissolved ([4]; solvent: Glycofurol): 8.68 mg/mL | Total MTL-005 dissolved ([4]; solvent: Macrogol 300): 2.60 mg/mL | Total MTL-005 dissolved ([4]; solvent: N,N-Dimethylacetamide (DMA), result close to concentration in sample, solubility may be greater): 74.08* mg/ml | Total MTL-005 dissolved ([4]; solvent: Polysorbate 20 (5% w/v aq)): 0.27 mg/mL | Total MTL-005 dissolved ([4]; solvent: Polysorbate 20 (10% w/v aq)): 0.13 mg/mL | Total MTL-005 dissolved ([4]; solvent: Polysorbate 20 (20% w/v aq)): 0.13 mg/mL | Total MTL-005 dissolved ([4]; solvent: Polysorbate 20, result close to concentration in sample, solubility may be greater): 5.88* mg/ml | Total MTL-005 dissolved ([4]; solvent: Polysorbate 80 5%, Cremophor EL 5% aq): 0.28 mg/mL | Total MTL-005 dissolved ([4]; solvent: Polysorbate 80 5%, DMA 10% aq): 0.45 mg/mL | Total MTL-005 dissolved ([4]; solvent: Polysorbate 80 5%, DMA 10%, Cremophor EL 5% aq): 0.35 mg/mL | Total MTL-005 dissolved ([4]; solvent: Polysorbate 80 (5% w/v aq)): 0.15 mg/mL and 0.22 mg/mL | Total MTL-005 dissolved ([4]; solvent: Polysorbate 80 (10% w/v aq)): 0.25 mg/mL | Total MTL-005 dissolved ([4]; solvent: Polysorbate 80 (20% w/v aq)): 0.38 mg/mL | Total MTL-005 dissolved ([4]; solvent: Propylene glycol): 0.019 mg/mL | Total MTL-005 dissolved ([4]; solvent: Solutol HS15): 11.50 mg/mL | Total MTL-005 dissolved ([4]; solvent: Solutol HS15 (5% w/v aq)): 0.08 mg/mL | Total MTL-005 dissolved ([4]; solvent: Solutol HS15 (10% w/v aq)): 0.10 mg/mL | Total MTL-005 dissolved ([4]; solvent: Solutol HS15 (20% w/v aq)): 0.16 mg/mL | Total MTL-005 dissolved ([4]; solvent: Soyabean oil): 0.59 mg/mL | Total MTL-005 dissolved ([4]; solvent: pH 7 Britton Robinson buffer): 0.0016 mg/mL
